Values after ≈ are worked out from the molar mass of the structure shown. Read-outs that look alike come from different tables or passages of the source.
Columns and labels:
Bio-assay (mcg./mg.) = assay: Bio-assay (mcg./mg.)
Procedure: 7-[D-α-amino-α-(p-hydroxyphenyl)acetamido]-3-(1,2,3-triazol-5-ylthiomethyl)-3-cephem-4-carboxylic acid methanol solvate (15 g.) was slurried in 60 ml. of water. The pH was raised to 6.5 by addition of 4N NaOH and the mixture was passed through a 200 mesh screen. The reaction mixture was slurried at room temperature for 2 hours, the pH being maintained at 6.5 during this period. The crystals were removed by filtration, washed with 20 ml. of water and air dried at 37° C. for 24 hours to give 11.5 g. of title crystalline product. Bio assay = 924 mcg./mg. (average % H2 O, K.F. = 5.26).
7-[D-α-amino-α-(p-hydroxyphenyl)acetamido]-3-(1,2,3-triazol-5-ylthiomethyl)-3-cephem-4-carboxylic acid methanol solvate (200 mesh; 10.0 g.) substantially free of propylene glycol is slurried in 30-40 ml. of deionized water at ambient room temperature (20°-25° C.) to give a pH 3-4 aqueous suspension. NaOH (40%) is slowly added with rapid stirring to bring the pH to 6.3-6.7. The mixture is slurried at pH 6.3-6.7 for 2 hours. The crystals are removed by filtration, washed with water and air dried at room temperature for 24 hours to give a 75-80% weight yield of 950-1000 mcg./mg. crystals of 7-[D-α-amino-α-(p-hydroxyphenyl)acetamido]-3-(1,2,3-triazol-5-ylthiomethyl)-3-cephem-4-carboxylic acid dihydrate. […] H2 O, K.F. = 6.56.

Water solubility = assay type: physicochemical
Procedure: The sodium and potassium salts of formula I may be dissolved in water to form relatively concentrated solutions of at least 250 mg./ml. of activity. Concentrations of 250 mg./ml. of activity (pH 5.7-7.2) of these salts have acceptable aqueous stabilities.
g. Water solubility = Approximately 10 mg./ml. in water at 23° C.
3. Solubility = greater than 400 mg./ml.

[1] = Liquid chromatography, % free BL-S640 present (hydrolysis in solution); assay type: physicochemical; conditions: 1 mg./ml.
Procedure: 5. Liquid Chromatography (concentration = 1 mg./ml.)
Time in Hours % Free BL-S640 Present

S. pneumoniae A9585 = assay: Antibiotic spectrum in nutrient broth, MIC; assay type: cell-based; conditions: Streptococcus pneumoniae, 10^-3 dilution of overnight culture, 45% AAB + 5% serum + 50% broth, BL-S1052 adjusted for 97.5% content of BL-S640
Text: (§1) Antibiotic Spectrum in Nutrient Broth
(§2) *45% AAB + 5% serum + 50% broth listed above.
(§3) **Dilution of overnight broth culture.
(§4) ^(1) Adjusted for 97.5% content of BL-S640. In other words, the
(§5) numerical values are lowered, i.e. improved. This adjustment was also mad
(§6) in the tests reported below or in the alternative, a larger weight was
(§7) used to provide equivalent dosage.

Str. pyogenes A9604 = assay: Antibiotic spectrum in nutrient broth, MIC; assay type: cell-based; conditions: Streptococcus pyogenes, 10^-3 dilution of overnight culture, 45% AAB + 5% serum + 50% broth, BL-S1052 adjusted for 97.5% content of BL-S640
Text: as §1, §2, §3, §4, §5, §6, §7

E. coli A9675 = assay: Antibiotic spectrum in nutrient broth, MIC; assay type: cell-based; conditions: Escherichia coli, 10^-4 dilution, BL-S1052 adjusted for 97.5% content of BL-S640
Text: as §1, §3, §4, §5, §6, §7

E. coli Juhl A15119 = assay: Antibiotic spectrum in nutrient broth, MIC; assay type: cell-based; conditions: Escherichia coli, JUHLA15119; 10^-4 dilution; BL-S1052 adjusted for 97.5% content of BL-S640
Text: as §1, §3, §4, §5, §6, §7

Ent. cloacae A9656 = assay: Antibiotic spectrum in nutrient broth, MIC; assay type: cell-based; conditions: Enterobacter cloacae, 10^-4 dilution, BL-S1052 adjusted for 97.5% content of BL-S640
Text: as §1, §3, §4, §5, §6, §7

Ent. cloacae A9657 = assay: Antibiotic spectrum in nutrient broth, MIC; assay type: cell-based; conditions: Enterobacter cloacae, 10^-4 dilution, BL-S1052 adjusted for 97.5% content of BL-S640
Text: as §1, §3, §4, §5, §6, §7

K. pneumoniae A15130 = assay: Antibiotic spectrum in nutrient broth, MIC; assay type: cell-based; conditions: Klebsiella pneumoniae, 10^-4 dilution, BL-S1052 adjusted for 97.5% content of BL-S640
Text: as §1, §3, §4, §5, §6, §7

K. pneumoniae A9977 = assay: Antibiotic spectrum in nutrient broth, MIC; assay type: cell-based; conditions: Klebsiella pneumoniae, 10^-4 dilution, BL-S1052 adjusted for 97.5% content of BL-S640
Text: as §1, §3, §4, §5, §6, §7

Pr. mirabilis A9900 = assay: Antibiotic spectrum in nutrient broth, MIC; assay type: cell-based; conditions: Proteus mirabilis, 10^-4 dilution, BL-S1052 adjusted for 97.5% content of BL-S640
Text: as §1, §3, §4, §5, §6, §7

Ps. Aeruginosa A9843A = assay: Antibiotic spectrum in nutrient broth, MIC; assay type: cell-based; conditions: Pseudomonas aeruginosa
Text: as §1, §3, §4, §5, §6, §7

[2] = tested on: S. aureus Meth-Res A15097; assay: Antibiotic spectrum in nutrient broth, MIC; assay type: cell-based; conditions: Staphylococcus aureus; 10^-3 dilution; BL-S1052 adjusted for 97.5% content of BL-S640
Text: as §1, §3, §4, §5, §6, §7

S. aureus Smith A9537 = assay: Antibiotic spectrum in nutrient broth, MIC; assay type: cell-based; conditions: Staphylococcus aureus, BL-S1052 adjusted for 97.5% content of BL-S640
Text: as §1, §3, §4, §5, §6, §7

Sal. enteritidis A9531 = assay: Antibiotic spectrum in nutrient broth, MIC; assay type: cell-based; conditions: Salmonella enterica, 10^-4 dilution, BL-S1052 adjusted for 97.5% content of BL-S640
Text: as §1, §3, §4, §5, §6, §7

Ser. marcescens A20019 = assay: Antibiotic spectrum in nutrient broth, MIC; assay type: cell-based; conditions: Serratia marcescens, 10^-4 dilution, BL-S1052 adjusted for 97.5% content of BL-S640
Text: as §1, §3, §4, §5, §6, §7

Ent. cloacae A9659 = assay: Antibiotic spectrum in nutrient broth, MIC; assay type: cell-based; conditions: Enterobacter cloacae, 10^-4 dilution, BL-S1052 adjusted for 97.5% content of BL-S640
Text: as §1, §3
(§8) This adjustment was also mad
as §6, §7

Pr. morganii A15153 = assay: Antibiotic spectrum in nutrient broth, MIC; assay type: cell-based; conditions: Morganella morganii, 10^-4 dilution, BL-S1052 adjusted for 97.5% content of BL-S640
Text: as §1, §3, §8, §6, §7

S. aureus BX1633 = assay: Antibiotic spectrum in nutrient broth, MIC; assay type: cell-based; conditions: Staphylococcus aureus
Text: as §1, §3, §8, §6, §7

[3] = Mouse blood levels after IM administration; assay type: in vivo; conditions: IM 10 mg./kg.
Procedure: Mouse Blood Levels after IM
Administration of 10 mg./kg. Body Weight
Blood Levels (mcg./ml.)
(§9) The compounds were prepared in 0.01% phosphate buffer. BL-S640 was used a
(§10) standard for all compounds.

[4] = Mouse blood levels after PO administration; assay type: in vivo; conditions: PO 100 mg./kg.
Procedure: ______________________________________
Mouse Blood Levels after PO
Administration of 100 mg./kg. Body Weight
The compounds were prepared in Tween-CMC. BL-S640 was used as standard fo

[5] = Urinary recovery after IM administration to rats; assay type: in vivo; conditions: rat, urine, read-out: Urinary recovery, percentage of administered dose recovered; for dose excreted at 6 h: 0-6 hr
Procedure: Urinary Recovery after IM
Administration of 50 and 10 mg./kg. to Rats
as §9, §10

[6] = Paper chromatograms of rat urine for antibiotically active metabolites after IM administration; assay type: in vivo; conditions: rat urine 0-2 and 2-4 hours
Procedure: Paper chromatograms were run on rat urine collected between 0 and 2 and between 2 and 4 hours, following IM administration of BL-S1052 and BL-S640, for the detection of antibiotically active metabolites using descending chromatography with system No. 9 (butyl acetate:n-butanol:glacial acetic acid:H2 O = 80:15:40:24).

[7] = Loss of bioactivity on storage at elevated temperatures; assay type: physicochemical
Procedure: h. Loss of bioactivity on storage at elevated temperatures: 100° C., 24 hours = <6%; 48 hours = <12%; 56° C., 1 month = <10%.

N[C@@H](C(=O)NC1C(=O)N2C(C(=O)O)=C(CSc3cnn[nH]3)CS[C@H]12)c1ccc(O)cc1.O.O (stereo partly drawn) [7-[D-α-amino-α-(p-hydroxyphenyl)acetamido]-3-(1,2,3-triazol-5-ylthiomethyl)-3-cephem-4-carboxylic acid dihydrate]
Bio-assay (Bio-assay (mcg./mg.)): 950 to 1000 µg/mg

O=C(O)C1=C(CSc2c[nH]nn2)CSC2C(N3C(=O)C(c4ccc(O)cc4)NC3c3ccco3)C(=O)N12 (centres unmarked) [BL-S1052]
Bio-assay (Bio-assay (mcg./mg.)): 775 to 800 µg/mg
solubility (Water solubility): > 400 mg/mL
% Free BL-S640 Present ([1]; 0 hours): 69.2%
% free BL-S640 present at 1 h ([1]; 1 hour): 74.2%
% free BL-S640 present at 2 h ([1]; 2 hours): 94.5%
MIC (S. pneumoniae A9585): 0.06 µg/mL
MIC (Str. pyogenes A9604): 0.03 µg/mL
MIC (E. coli A9675): 2 µg/mL (≈ 3.7 µM)
MIC (E. coli Juhl A15119): 1 µg/mL (≈ 1.85 µM)
MIC (Ent. cloacae A9656): > 125 µg/mL
MIC (Ent. cloacae A9657): 0.5 µg/mL (≈ 0.925 µM)
MIC (K. pneumoniae A15130): 1 µg/mL (≈ 1.85 µM)
MIC (K. pneumoniae A9977): 0.5 µg/mL (≈ 0.925 µM)
MIC (Pr. mirabilis A9900): 0.5 µg/mL (≈ 0.925 µM)
MIC (Ps. Aeruginosa A9843A): > 125 µg/mL
MIC [2]: 4 µg/mL (≈ 7.4 µM)
MIC (S. aureus Smith A9537; SMITHA9537, 10^-4 dilution, nutrient broth): 0.13 µg/mL (≈ 0.24 µM)
MIC (S. aureus Smith A9537; SMITHA9537, +50% serum, 10^-4 dilution): 2 µg/mL (≈ 3.7 µM)
MIC (Sal. enteritidis A9531): 0.13 µg/mL (≈ 0.24 µM)
MIC (Ser. marcescens A20019): > 125 µg/mL
MIC (Ent. cloacae A9659): 32 µg/mL (≈ 59.2 µM)
MIC (Pr. morganii A15153): 32 µg/mL (≈ 59.2 µM)
MIC (S. aureus BX1633; BX1633): 0.25 µg/mL (≈ 0.462 µM)
MIC (S. aureus BX1633; BX1633, 10^-2 dilution, A9606, BL-S1052 adjusted for 97.5% content of BL-S640, read-out: MIC): 2 µg/mL (≈ 3.7 µM)
concentration at 0.25 h ([3]; 0.25 hr): 15100 ng/mL
concentration at 0.5 h ([3]; 0.5 hr): 15100 ng/mL
concentration at 1 h ([3]; 1 hr): 11500 ng/mL
concentration at 1.5 h ([3]; 1.5 hr): 7800 ng/mL
concentration at 0.5 h ([4]; 0.5 hr): 45200 ng/mL
concentration at 1 h ([4]; 1 hr): 48100 ng/mL
concentration at 2 h ([4]; 2 hr): 31900 ng/mL
concentration at 3.5 h ([4]; 3.5 hr): 14400 ng/mL
dose excreted at 6 h ([5]; 10 mg/kg, IM 10 mg./kg.): 21.7%
dose excreted at 24 h ([5]; 10 mg/kg, IM 10 mg./kg., 0-24 hr): 24.1%
dose excreted at 24 h ([5]; 10 mg/kg, IM 10 mg./kg., 6-24 hr): 2.4%
dose excreted at 6 h ([5]; 50 mg/kg, IM 50 mg./kg.): 40.3%
dose excreted at 24 h ([5]; 50 mg/kg, IM 50 mg./kg., 0-24 hr): 42.4%
dose excreted at 24 h ([5]; 50 mg/kg, IM 50 mg./kg., 6-24 hr): 2.1%
Hydrolysis of the derivative to parent compound BL-S640 and its presumed metabolite [6]: complete hydrolysis
Antibiotically active spots in urine ([6]; paper chromatography system No. 9): Two spots identically located

NC(C(=O)NC1C(=O)N2C(C(=O)O)=C(CSc3c[nH]nn3)CSC12)c1ccc(O)cc1 [7-[D-α-amino-α-(p-hydroxyphenyl)acetamido]-3-(1,2,3-triazol-5-ylthiomethyl)-3-cephem-4-carboxylic acid propylene glycol solvate]
degraded at 720 h ([7]; 56° C., 1 month): < 10%
degraded at 24 h ([7]; 100° C., 24 hours): < 6%
degraded at 48 h ([7]; 100° C., 48 hours): < 12%

— patent publication US4061862A, “Derivatives of 7-(cyclized)phenylglycyl-3-triazolo-thio methyl cephalosporin” (priority 1976, dated 1977)
